Laboratory results as given in US20240090503A1, “FUNGICIDAL OXADIAZOLES AND THEIR MIXTURES” (FMC CORPORATION, priority 2020, published 2024).

Tests used:
[1] = system: Puccinia recondita f. sp. tritici (the causal agent of wheat leaf rust); experiment: Test C: preventive spray on wheat seedlings, wheat leaf rust, visual disease rating; format: in vivo; conditions: wheat seedlings; for pest or weed control at 10 µg/mL: Puccinia recondita, 168 h, read-out: Test C disease control rating
From the text: (§1) General protocol for preparing test suspensions for Tests A-D: the test compounds were first dissolved in acetone in an amount equal to 3% of the final volume and then suspended at the desired concentration (in ppm) in acetone and purified water (50/50 mix by volume) containing 250 ppm of the surfactant PEG400 (polyhydric alcohol esters). The resulting test suspensions were then used in Tests A-D.
(§2) The test suspension was sprayed to the point of run-off on wheat seedlings. The following day the seedlings were inoculated with a spore suspension of Puccinia recondita f. sp. tritici; (the causal agent of wheat leaf rust) and incubated in a saturated atmosphere at 20° C. for 24 h, and then moved to a growth chamber at 20° C. for 6 days, after which time visual disease ratings were made.
(§3) The test results for Tests A-C presented in Table A below for compounds of Formula 1 illustrate the fungicidal activity of component (a) contributing to the plant disease control utility of compositions comprising component (a) in combination with component (b) according to the present invention. In the Table, a rating of 100 indicates 100% disease control and a rating of 0 indicates no disease control (relative to the controls). A dash (-) indicates the compound was not tested. The test suspensions were sprayed at the concentration listed in the column “Rate in ppm”, unless otherwise indicated. An asterisk “*” next to the rating indicates a 250 ppm test suspension was used, a double asterisk “**” next to the rating indicates a 100 ppm test suspension was used, and a triple asterisk “***” next to the rating indicates a 50 ppm test suspension was used.

[2] = system: Phakopsora pachyrhizi (the causal agent of Asian soybean rust); experiment: Test A: preventive spray on soybean seedlings, Asian soybean rust, visual disease rating; format: in vivo; conditions: soybean seedlings; for pest or weed control at 10 µg/mL: Phakopsora pachyrhizi, 216 h, read-out: Test A disease control rating
From the text: as §1
as §2, with “soybean” for “wheat”, “Phakopsora pachyrhizi” for “Puccinia recondita f. sp. tritici;”, “Asian soybean” for “wheat leaf”, “22°” for “20°”, “h” for “h,”, “8” for “6”
as §3

[3] = 10 ppm test suspension, 100 = 100% disease control, 0 = no control
[4] = test suspension 10 ppm, 100 = 100% disease control, 0 = no control
[5] = 50 ppm test suspension, 100 = 100% disease control, 0 = no control

## Nc1cnn(Cc2ccc(-c3noc(C(F)(F)F)n3)cc2)c1 [compound 381]
[1]; [3]
  Test C disease control rating: 0%
[2]; [3]
  Test A disease control rating: 0%

## N#Cc1nn(Cc2ccc(-c3noc(C(F)(F)F)n3)cc2)c2ccccc12 [compound 104]
[1]; test suspension 10 ppm
  Test C disease control rating: 68%
[2]; [4]
  Test A disease control rating: 100%

## O=C(O)C1=NOC(Cc2ccc(-c3noc(C(F)(F)F)n3)s2)C1 (stereo not shown) [compound 367]
[1]; test suspension 50 ppm
  Test C disease control rating: 67%
[2]; test suspension 50 ppm
  Test A disease control rating: 96%

## CCOC(=O)c1cnn(CCc2ccc(-c3noc(C(F)(F)F)n3)cc2)c1 [compound 437]
[1]; [3]
  Test C disease control rating: 86%
[2]; [3]
  Test A disease control rating: 100%

## Nc1nn(Cc2ccc(-c3noc(C(F)(F)F)n3)cc2)c2ncccc12 [compound 446]
[1]; [3]
  Test C disease control rating: 86%
[2]; [3]
  Test A disease control rating: 99%

## O=c1c2ccccc2sn1Cc1ccc(-c2noc(C(F)(F)F)n2)cc1 [compound 155]
[1]; test suspension 10 ppm
  Test C disease control rating: 0%
[2]; [4]
  Test A disease control rating: 60%

## CCOC(=O)c1cnn(C(C)c2ccc(-c3noc(C(F)(F)F)n3)s2)c1 (stereo not shown) [compound 247]
[1]; test suspension 10 ppm
  Test C disease control rating: 100%
[2]; [4]
  Test A disease control rating: 100%

## O=C(OCc1ccccc1)c1cnn(Cc2ccc(-c3noc(C(F)(F)F)n3)cc2)c1 [compound 412]
[1]; [3]
  Test C disease control rating: 100%
[2]; [3]
  Test A disease control rating: 100%

## COC(=O)c1cccc2nn(Cc3ccc(-c4noc(C(F)(F)F)n4)cc3)cc12 [Compound 36, methyl 2-[[4-[5-(trifluoromethyl)-1,2,4-oxadiazol-3-yl]phenyl]methyl]-2H-indazole-4-carboxylate]
[1]; test suspension 10 ppm
  pest or weed control at 10 µg/mL: 100%
[2]; [4]
  pest or weed control at 10 µg/mL: 100%

## COc1cc(=O)n(Cc2ccc(-c3noc(C(F)(F)F)n3)cc2)nc1Cl [compound 27]
[1]; test suspension 50 ppm
  Test C disease control rating: 100%
[2]; test suspension 50 ppm
  Test A disease control rating: 100%

## CCOC(=O)c1cnn(COCc2ccc(-c3noc(C(F)(F)F)n3)cc2)c1 [compound 362]
[1]; test suspension 50 ppm
  Test C disease control rating: 100%
[2]; test suspension 50 ppm
  Test A disease control rating: 100%

## COC(=O)c1c2ccccc2nn1Cc1ccc(-c2noc(C(F)(F)F)n2)cc1 [compound 141]
[1]; test suspension 10 ppm
  Test C disease control rating: 88%
[2]; [4]
  Test A disease control rating: 100%

## COC(=O)c1ccc2cn(Cc3ccc(-c4noc(C(F)(F)F)n4)cc3)nc2c1 [compound 42]
[1]; test suspension 10 ppm
  Test C disease control rating: 92%
[2]; [4]
  Test A disease control rating: 100%

## N#CCCCOC(=O)c1cnn(Cc2ccc(-c3noc(C(F)(F)F)n3)cc2)c1 [compound 274]
[1]; test suspension 10 ppm
  Test C disease control rating: 100%
[2]; [4]
  Test A disease control rating: 100%

## N#Cc1c(Br)cnn1Cc1ccc(-c2noc(C(F)(F)F)n2)s1 [compound 77]
[1]; test suspension 50 ppm
  Test C disease control rating: 100%
[2]; test suspension 50 ppm
  Test A disease control rating: 100%

## CCOC(=O)c1cnn(Cc2cc(-c3noc(C(F)(F)F)n3)cs2)c1 [compound 271]
[1]; test suspension 10 ppm
  Test C disease control rating: 68%
[2]; [4]
  Test A disease control rating: 99%

## CC(C)(C)c1ccn(Cc2ccc(-c3noc(C(F)(F)F)n3)cc2)n1 [compound 98]
[1]; test suspension 50 ppm
  Test C disease control rating: 68%
[2]; test suspension 50 ppm
  Test A disease control rating: 99%

## CC(C)=CCOC(=O)c1cnn(Cc2ccc(-c3noc(C(F)(F)F)n3)cc2)c1 [compound 169]
[1]; test suspension 10 ppm
  Test C disease control rating: 99%
[2]; [4]
  Test A disease control rating: 100%

## FC(F)(F)c1nc(-c2ccc(Cn3cc4ncccc4n3)cc2)no1 [compound 409]
[1]; [3]
  Test C disease control rating: 100%
[2]; [3]
  Test A disease control rating: 100%

## O=C1N(Cc2ccc(-c3noc(C(F)(F)F)n3)cc2)CCc2cncn21 [compound 462]
[1]; [3]
  Test C disease control rating: 89%
[2]; [3]
  Test A disease control rating: 100%

## CC(COC(=O)c1cnn(Cc2ccc(-c3noc(C(F)(F)F)n3)cc2)c1)=NO [compound 223]
[1]; test suspension 10 ppm
  Test C disease control rating: 91%
[2]; [4]
  Test A disease control rating: 100%

## C=C(Cl)COC(=O)c1cnn(Cc2ccc(-c3noc(C(F)(F)F)n3)cc2)c1 [compound 482]
[1]; [3]
  Test C disease control rating: 100%
[2]; [3]
  Test A disease control rating: 100%

## CCCOC(=O)c1cnn(Cc2cc(-c3noc(C(F)(F)F)n3)cs2)c1 [compound 250]
[1]; test suspension 10 ppm
  Test C disease control rating: 74%
[2]; [4]
  Test A disease control rating: 100%

## N#Cc1ccc2nn(Cc3ccc(-c4noc(C(F)(F)F)n4)cc3)cc2c1 [compound 108]
[1]; test suspension 50 ppm
  Test C disease control rating: 100%
[2]; test suspension 50 ppm
  Test A disease control rating: 100%

## COc1cnn(Cc2ccc(-c3noc(C(F)(F)F)n3)cc2)c(=O)c1 [compound 28]
[1]; test suspension 50 ppm
  Test C disease control rating: 100%
[2]; test suspension 50 ppm
  Test A disease control rating: 100%

## CC(C)OC(=O)c1cnn(Cc2ccc(-c3noc(C(F)(F)F)n3)s2)c1 [compound 200]
[1]; test suspension 10 ppm
  Test C disease control rating: 100%
[2]; [4]
  Test A disease control rating: 100%

## CCOC(=O)c1cc(C(=O)OCC)n(Cc2ccc(-c3noc(C(F)(F)F)n3)cc2)n1 [compound 154]
[1]; test suspension 50 ppm
  Test C disease control rating: 100%
[2]; test suspension 50 ppm
  Test A disease control rating: 100%

## O=C(OCc1ccccn1)c1cnn(Cc2ccc(-c3noc(C(F)(F)F)n3)cc2)c1 [compound 479]
[1]; [3]
  Test C disease control rating: 100%
[2]; [3]
  Test A disease control rating: 100%

## Cc1cccc2c1cnn2Cc1ccc(-c2noc(C(F)(F)F)n2)cc1 [compound 100]
[1]; test suspension 10 ppm
  Test C disease control rating: 86%
[2]; [4]
  Test A disease control rating: 100%

## COC(=O)c1ccc(=O)n(Cc2ccc(-c3noc(C(F)(F)F)n3)cc2)c1 [compound 420]
[1]; [3]
  Test C disease control rating: 100%
[2]; [3]
  Test A disease control rating: 100%

## N#Cc1cnn(Cc2ccc(-c3noc(C(F)(F)F)n3)s2)c1 [compound 189]
[1]; test suspension 50 ppm
  Test C disease control rating: 100%
[2]; test suspension 50 ppm
  Test A disease control rating: 100%

## CCOC(=O)c1cnn(CCOc2ccc(-c3noc(C(F)(F)F)n3)cc2)c1 [compound 308]
[1]; test suspension 10 ppm
  Test C disease control rating: 0%
[2]; [4]
  Test A disease control rating: 0%

## NC(=O)C1COC(Cc2ccc(-c3noc(C(F)(F)F)n3)cc2)=N1 (stereo not shown) [Compound 75, 4,5-dihydro-2-[[4-[5-(trifluoromethyl)-1,2,4-oxadiazol-3-yl]phenyl]methyl]-4-oxazolecarboxamide]
[1]; test suspension 10 ppm
  pest or weed control at 10 µg/mL: 68%
[2]; [4]
  pest or weed control at 10 µg/mL: 100%

## FC(F)(F)c1nc(-c2ccc(Cn3ccc4ccccc43)s2)no1 [compound 196]
[1]; test suspension 10 ppm
  Test C disease control rating: 93%
[2]; [4]
  Test A disease control rating: 100%

## FC(F)(F)c1nc(-c2ccc(Cn3cc4c(I)cc(Cl)cc4n3)cc2)no1 [compound 38]
[1]; test suspension 10 ppm
  Test C disease control rating: 68%
[2]; [4]
  Test A disease control rating: 78%

## O=C(NCC=C(Cl)Cl)c1csc(Cc2ccc(-c3noc(C(F)(F)F)n3)cc2)n1 [compound 208]
[1]; test suspension 10 ppm
  Test C disease control rating: 86%
[2]; [4]
  Test A disease control rating: 100%

## FC(F)(F)c1nc(-c2ccc(Cn3ncc4cc(Br)cnc43)cc2)no1 [compound 413]
[1]; [3]
  Test C disease control rating: 68%
[2]; [3]
  Test A disease control rating: 100%

## CC(=O)Nc1cnn(Cc2ccc(-c3noc(C(F)(F)F)n3)cc2)c1 [compound 441]
[1]; [3]
  Test C disease control rating: 9%
[2]; [3]
  Test A disease control rating: 87%

## FC(F)(F)c1nc(-c2ccc(Cn3cc4cnc(Cl)nc4n3)cc2)no1 [compound 433]
[1]; [3]
  Test C disease control rating: 99%
[2]; [3]
  Test A disease control rating: 100%

## CCOC(=O)c1cnn(CCCc2ccc(-c3noc(C(F)(F)F)n3)cc2)c1 [compound 428]
[1]; [5]
  Test C disease control rating: 100%
[2]; [5]
  Test A disease control rating: 100%

## CCOC(=O)c1cnn(C(C)c2ccc(-c3noc(C(F)(F)F)n3)s2)c1 (stereo not shown) [compound 246]
[1]; test suspension 10 ppm
  Test C disease control rating: 100%
[2]; [4]
  Test A disease control rating: 100%

## CCOC(=O)C1(Cc2ccc(-c3noc(C(F)(F)F)n3)cc2)CCNC1=O (stereo not shown) [compound 431]
[1]; [5]
  Test C disease control rating: 98%
[2]; [5]
  Test A disease control rating: 99%

## CCOC(=O)c1cc(C(C)(C)C)n(Cc2ccc(-c3noc(C(F)(F)F)n3)cc2)n1 [compound 187]
[1]; test suspension 10 ppm
  Test C disease control rating: 0%
[2]; [4]
  Test A disease control rating: 0%

## FC(F)(F)c1nc(-c2ccc(Cn3ncc4c(I)cc(Cl)cc43)cc2)no1 [compound 39]
[1]; test suspension 10 ppm
  Test C disease control rating: 28%
[2]; [4]
  Test A disease control rating: 44%

## COC(=O)c1ccn(Cc2ccc(-c3noc(C(F)(F)F)n3)cc2)c(=O)c1 [Compound 24, methyl 1,2-dihydro-2-oxo-1-[[4-[5-(trifluoromethyl)-1,2,4-oxadiazol-3-yl]phenyl]methyl]-4-pyridinecarboxylate]
[1]; test suspension 10 ppm
  pest or weed control at 10 µg/mL: 95%
[2]; [4]
  pest or weed control at 10 µg/mL: 100%

## FC(F)(F)c1nc(-c2ccc(CCCn3ccc(-c4ccccc4)n3)cc2)no1 [compound 360]
[1]; test suspension 10 ppm
  Test C disease control rating: 68%
[2]; [4]
  Test A disease control rating: 100%

## COc1ccc(C(O)c2ccc(-c3noc(C(F)(F)F)n3)cc2)cc1 (stereo not shown) [compound 309]
[1]; test suspension 50 ppm
  Test C disease control rating: 68%
[2]; test suspension 50 ppm
  Test A disease control rating: 100%
